Data published in patent publication US11498896B2 (The Broad Institute, Inc., priority 2014, dated 2022).

Tests used:
human D2R/β-arrestin [1] = target: T1, human D2R/β-arrestin (Homo sapiens (Human), UniProt P14416); assay: Gi/cAMP agonist assay (Lance Ultra cAMP, forskolin); format: cell-based; conditions: CHO-K1 cells expressing human D2R/β-arrestin; agonist mode, 2.5 μM forskolin
Protocol: Eu-cAMP tracer solution (10 μl, PerkinElmer, 360 μl of Tracer in 17.64 ml kit buffer) and ULight-anti-cAMP solution (10 μl, 120 μL antibody in 17.88 ml kit buffer) was then added to each well.

human D2R/β-arrestin [2] = target: T1, human D2R/β-arrestin; assay: cell-based; conditions: β-arrestin Antagonist, CHO-K1 cells expressing human D2R/β-arrestin; antagonist mode, quinpirole 130 nM
human D2R/β-arrestin [3] = target: T1, human D2R/β-arrestin; assay: β-arrestin agonist assay (PathHunter); format: cell-based; conditions: CHO-K1 cells expressing human D2R/β-arrestin; agonist mode
Protocol: The detection reagent (9.6 μL, Buffer:Emerald II:Galactor-Star in a 19:5:1 ratio, i.e., 14.06 mL:3.7 mL:0.74 mL=18.5 mL) was then added to the agonist plates.

human D2R/β-arrestin [4] = target: T1, human D2R/β-arrestin; assay: cell-based; conditions: cAMP Antagonist, CHO-K1 cells expressing human D2R/β-arrestin; antagonist mode, 2.5 μM forskolin and 2.7 nM quinpirole

T1 sequence (P14416 whole entry): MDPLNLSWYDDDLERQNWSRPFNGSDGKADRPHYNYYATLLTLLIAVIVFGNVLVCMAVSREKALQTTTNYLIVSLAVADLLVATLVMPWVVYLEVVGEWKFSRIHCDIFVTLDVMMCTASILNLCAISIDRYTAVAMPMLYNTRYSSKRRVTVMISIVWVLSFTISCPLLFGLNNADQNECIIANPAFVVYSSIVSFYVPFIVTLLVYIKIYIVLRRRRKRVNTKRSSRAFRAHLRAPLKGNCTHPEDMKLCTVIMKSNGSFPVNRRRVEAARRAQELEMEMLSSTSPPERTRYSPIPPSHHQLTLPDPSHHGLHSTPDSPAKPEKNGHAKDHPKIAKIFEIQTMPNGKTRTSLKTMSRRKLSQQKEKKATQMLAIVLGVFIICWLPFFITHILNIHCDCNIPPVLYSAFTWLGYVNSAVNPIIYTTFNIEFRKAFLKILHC

Structure (SMILES)	EC50 (human D2R/β-arrestin [1]) [µM]	IC50 (human D2R/β-arrestin [2]) [µM]	EC50 (human D2R/β-arrestin [3]) [µM]	IC50 (human D2R/β-arrestin [4]) [nM]
COc1cc2c(cc1O)C1Cc3ccc(O)c(OC)c3CN1CC2 (racemic) [D,L-Stepholidine, reference compound]	> 30	< 0.1	> 30	< 100
CNC(=O)C1(C)CCN(CC2COc3ccccc3O2)CC1 (single isomer, unassigned) [Compound 202a, 1-((2,3-dihydrobenzo[b][1,4]dioxin-2-yl)methyl)-N,4-dimethylpiperidine-4-carboxamide]	0.1 to 1	10 to 30	> 30	1000 to 10000
CC1(C(=O)NC2CC2)CCN(CC2COc3ccccc3O2)CC1 (single isomer, unassigned) [Compound 203a, N-cyclopropyl-1-((2,3-dihydrobenzo[b][1,4]dioxin-2-yl)methyl)-4-methylpiperidine-4-carboxamide]	< 0.1	0.1 to 1	> 30	1000 to 10000
CC1(C(=O)NC2CC2)CCN(CC2COc3ccccc3O2)CC1 (single isomer, unassigned) [Compound 203b, N-cyclopropyl-1-((2,3-dihydrobenzo[b][1,4]dioxin-2-yl)methyl)-4-methylpiperidine-4-carboxamide]	> 30	10 to 30	> 30	10000 to 30000
CC1(C(=O)Nc2ccccc2)CCN(CC2COc3ccccc3O2)CC1 (single isomer, unassigned) [Compound 204a, 1-((2,3-dihydrobenzo[b][1,4]dioxin-2-yl)methyl)-4-methyl-N-phenylpiperidine-4-carboxamide]	> 30	1 to 10	> 30	1000 to 10000
FC(F)(F)c1ccccc1OCCN1CCC2(CC1)CC2c1ccc(Cl)cc1 (single isomer, unassigned) [Compound 216a, 1-(4-chlorophenyl)-6-(2-(2-(trifluoromethyl)phenoxy)ethyl)-6-azaspiro[2.5]octane]	> 30	1 to 10	> 30	1000 to 10000
FC(F)(F)c1ccccc1OCCN1CCC2(CC1)CC2c1ccc(Cl)cc1 (single isomer, unassigned) [Compound 216b, 1-(4-chlorophenyl)-6-(2-(2-(trifluoromethyl)phenoxy)ethyl)-6-azaspiro[2.5]octane]	10 to 30	10 to 30	> 30	> 30000
COc1ccccc1OCCN1CCC(C)(Oc2ccc(Cl)cc2)C1 (centres unmarked) [Compound 2, 3-(4-Chlorophenoxy)-1-(2-(2-methoxyphenoxy)ethyl)-3-methyl pyrrolidine]	> 30	0.1 to 1	> 30	100 to 1000
CC1(Oc2ccc(Cl)cc2)CCN(CCCCOc2ccccc2)C1 (centres unmarked) [Compound 3, 3-(4-chlorophenoxy)-3-methyl-1-(4-phenoxybutyl)pyrrolidine]	> 30	1 to 10	> 30	100 to 1000
CC1(Oc2ccc(Cl)cc2)CCN(CCCOc2ccccc2)C1 (centres unmarked) [Compound 4, 3-(4-chlorophenoxy)-3-methyl-1-(3-phenoxypropyl)pyrrolidine]	> 30	1 to 10	> 30	100 to 1000
CC1(Oc2ccc(Cl)cc2)CCN(CCOc2ccccc2Cl)C1 (centres unmarked) [Compound 5, 3-(4-chlorophenoxy)-1-(2-(2-chlorophenoxy)ethyl)-3-methylpyrrolidine]	> 30	0.1 to 1	> 30	< 100
Cc1ccccc1OCCN1CCC(C)(Oc2ccc(Cl)cc2)C1 (centres unmarked) [Compound 6, 3-(4-chlorophenoxy)-3-methyl-1-(2-(o-tolyloxy)ethyl)pyrrolidine]	> 30	1 to 10	> 30	100 to 1000
CC1(Oc2ccc(Cl)cc2)CCN(CCOc2ccccc2C(F)(F)F)C1 (centres unmarked) [Compound 8, 3-(4-chlorophenoxy)-3-methyl-1-(2-(2-(trifluoromethyl)phenoxy)ethyl) pyrrolidine]	> 30	1 to 10	> 30	100 to 1000
CC1(Oc2ccc(Cl)cc2)CCN(CCOc2ccccc2F)C1 (centres unmarked) [Compound 9, 3-(4-chlorophenoxy)-1-(2-(2-fluorophenoxy)ethyl)-3-methylpyrrolidine]	< 0.1	0.1 to 1	> 30	> 30000
CC1(Oc2ccc(Cl)cc2)CCN(CCOc2cccc(Cl)c2)C1 (centres unmarked) [Compound 10, 3-(4-chlorophenoxy)-1-(2-(3-chlorophenoxy)ethyl)-3-methylpyrrolidine]	< 0.1	1 to 10	> 30	> 30000
Cc1cccc(OCCN2CCC(C)(Oc3ccc(Cl)cc3)C2)c1 (centres unmarked) [Compound 11, 3-(4-chlorophenoxy)-3-methyl-1-(2-(m-tolyloxy)ethyl)pyrrolidine]	< 0.1	1 to 10	> 30	100 to 1000

Structure (SMILES)	EC50 (human D2R/β-arrestin [1]) [µM]	IC50 (human D2R/β-arrestin [2]) [µM]	EC50 (human D2R/β-arrestin [3]) [µM]	IC50 (human D2R/β-arrestin [4]) [nM]
CC1(Oc2ccc(Cl)cc2)CCN(CCOc2cccnc2)C1 (centres unmarked) [Compound 12, 3-(2-(3-(4-chlorophenoxy)-3-methylpyrrolidin-1-yl)ethoxy)pyridine]	< 0.1	> 30	< 0.1	> 30000
CC1(Oc2ccc(Cl)cc2)CCN(CCOc2cccc(C(F)(F)F)c2)C1 (centres unmarked) [Compound 13, 3-(4-chlorophenoxy)-3-methyl-1-(2-(3-(trifluoromethyl)phenoxy)ethyl) pyrrolidine]	> 30	1 to 10	> 30	100 to 1000
CC1(Oc2ccc(Cl)cc2)CCN(CCOc2ccc(F)cc2)C1 (centres unmarked) [Compound 14, 3-(4-chlorophenoxy)-1-(2-(4-fluorophenoxy)ethyl)-3-methylpyrrolidine]	< 0.1	1 to 10	> 30	100 to 1000
CC1(Oc2ccc(Cl)cc2)CCN(CCOc2ccc(Cl)cc2)C1 (centres unmarked) [Compound 15, 3-(4-chlorophenoxy)-1-(2-(4-chlorophenoxy)ethyl)-3-methylpyrrolidine]	< 0.1	1 to 10	> 30	1000 to 10000
Cc1ccc(OCCN2CCC(C)(Oc3ccc(Cl)cc3)C2)cc1 (centres unmarked) [Compound 16, 3-(4-Chlorophenoxy)-3-methyl-1-(2-(p-tolyloxy)ethyl)pyrrolidine]	0.1 to 1	1 to 10	> 30	> 30000
CC1(Oc2ccc(Cl)cc2)CCN(CCOc2ccc(C(F)(F)F)cc2)C1 (centres unmarked) [Compound 17, 3-(4-chlorophenoxy)-3-methyl-1-(2-(4-(trifluoromethyl)phenoxy)ethyl) pyrrolidine]	> 30	10 to 30	> 30	1000 to 10000
CC1(Oc2ccc(Cl)cc2)CCN(CCOc2ccc3ncsc3c2)C1 (centres unmarked) [Compound 18, 6-(2-(3-(4-chlorophenoxy)-3-methylpyrrolidin-1-yl)ethoxy)benzo[d]thiazole]	0.1 to 1	1 to 10	> 30	> 30000
COc1cccc(OCCN2CCC(C)(Oc3ccc(Cl)cc3)C2)c1 (centres unmarked) [Compound 19, 3-(4-chlorophenoxy)-1-(2-(3-methoxyphenoxy)ethyl)-3-methyl pyrrolidine]	< 0.1	> 30	1 to 10	> 30000
COc1ccc(OCCN2CCC(C)(Oc3ccc(Cl)cc3)C2)cc1 (centres unmarked) [Compound 20, 3-(4-chlorophenoxy)-1-(2-(4-methoxyphenoxy)ethyl)-3-methyl pyrrolidine]	< 0.1	10 to 30	> 30	> 30000
CC1(Oc2ccc(Cl)cc2)CCN(CCOC2CCCCC2)C1 (centres unmarked) [Compound 21, 3-(4-chlorophenoxy)-1-(2-(cyclohexyloxy)ethyl)-3-methylpyrrolidine]	> 30	1 to 10	> 30	1000 to 10000
CC1(Oc2ccc(Cl)cc2)CCN(CCOc2ccc(F)cc2F)C1 (centres unmarked) [Compound 22, 3-(4-chlorophenoxy)-1-(2-(2,4-difluorophenoxy)ethyl)-3-methyl pyrrolidine]	< 0.1	1 to 10	> 30	100 to 1000
CC1(Oc2ccc(Cl)cc2)CCN(CCOc2cc(F)ccc2F)C1 (centres unmarked) [Compound 23, 3-(4-chlorophenoxy)-1-(2-(2,5-difluorophenoxy)ethyl)-3-methyl pyrrolidine]	< 0.1	0.1 to 1	> 30	> 30000
CC1(Oc2ccc(Cl)cc2)CCN(CCOc2ccc3cccnc3c2)C1 (centres unmarked) [Compound 24]	< 0.1	> 30	< 0.1	> 30000
CC1(Oc2ccc(Cl)cc2)CCN(CCOc2ccc3ccc(=O)[nH]c3c2)C1 (centres unmarked) [Compound 25, 7-(2-(3-(4-chlorophenoxy)-3-methylpyrrolidin-1-yl)ethoxy)quinolin-2(1H)-one]	> 30	1 to 10	> 30	1000 to 10000
CC1(Oc2ccc(Cl)cc2)CCN(CCCc2ccccc2)C1 (centres unmarked) [Compound 26, 3-(4-chlorophenoxy)-3-methyl-1-(3-phenylpropyl)pyrrolidine]	> 30	1 to 10	> 30	100 to 1000
CC1(Oc2ccc(Cl)cc2)CCN(CCCCOc2ccccc2Cl)C1 (centres unmarked) [Compound 28, 3-(4-chlorophenoxy)-1-(4-(2-chlorophenoxy)butyl)-3-methylpyrrolidine]	> 30	0.1 to 1	> 30	< 100
